This is an account of results in patent publication US11173151B2, “Substituted triazole derivatives and uses thereof” (BAYER AKTIENGESELLSCHAFT, priority 2017, dated 2021).

pIC50: −log10 of the molar value.

A word on the pIC50: it is −log10 of the IC50, conventionally taken in molar units.

One assay deals with T1, human V2 receptor (Homo sapiens, UniProt P30518).
T1 construct: expressed in transfected cells; host or cells: CHO K1 (ATCC) expressing firefly luciferase under a CRE-responsive promoter
As to the kind of experiment: Cellular in vitro assay for determining vasopressin receptor activity, V2 receptor cell line (CHO, CRE-luciferase). The format is cell-based. Particulars: CHO cell line transfected with human V2 receptor; [Arg8]-vasopressin at EC50 concentration, 3 hours; read-out: IC50 hV2. The procedure:
(§1) B-1. Cellular In Vitro Assay for Determining Vasopressin Receptor Activity
(§2) The identification of agonists and antagonists of the V1a and V2 vasopressin receptors from humans, rats and dogs as well as the quantification of the activity of the compounds of the invention is carried out using recombinant cell lines. These cell lines originally derive from a hamster's ovary epithelial cell (Chinese Hamster Ovary, CHO K1, ATCC: American Type Culture Collection, Manassas, Va. 20108, USA). The test cell lines constitutively express the human, rat or dog V1a or V2 receptors. In case of the Gαq-coupled V1a receptors, cells are also stably transfected with a modified form of the calcium-sensitive photoproteins aequorin (human and rat V1a) or obelin (dog V1a), which, after reconstitution with the cofactor coelenterazine, emit light when there are increases in free calcium concentrations [Rizzuto R, Simpson A W, Brini M, Pozzan T, Nature 358, 325-327 (1992); Illarionov B A, Bondar V S, Illarionova V A, Vysotski E S, Gene 153 (2), 273-274 (1995)]. The resulting vasopressin receptor cells react to stimulation of the recombinantly expressed V1a receptors by intracellular release of calcium ions, which can be quantified by the resulting photoprotein luminescence. The Gs-coupled V2 receptors are stably transfected into cell lines expressing the gene for firefly luciferase under control of a CRE-responsible promoter. Activation of V2 receptors induces the activation of the CRE-responsive promoter via cAMP increase, thereby inducing the expression of firefly luciferase. The light emitted by photoproteins of V1a cell lines as well as the light emitted by firefly luciferase of V2 cell lines corresponds to the activation or inhibition of the respective vasopressin receptor. The bioluminescence of the cell lines is detected using a suitable luminometer [Milligan G, Marshall F, Rees S, Trends in Pharmacological Sciences 17, 235-237 (1996)].
Vasopressin V2 Receptor Cell Lines:
On the day before the assay, the cells are plated out in culture medium (DMEM/F12, 2% FCS, 2 mM glutamine, 10 mM HEPES) in 384-well microtiter plates and kept in a cell incubator (96% humidity, 5% v/v CO2, 37° C.). On the day of the assay, test compounds in various concentrations and the agonist [Arg^8]-vasopressin at EC50 concentration are added together to the wells, and plates are incubated for 3 hours in a cell incubator. Upon addition of the cell lysis reagent Triton™ and the substrate luciferin, luminescence of firefly luciferase is measured in a luminometer.
(§3) Table 1A below lists individual IC50 values for the compounds of the invention (including racemic mixtures as well as separated enantiomers) that were obtained from cell lines transfected with the human V1a or V2 receptor: […]

The target in the next assay is T2, human V1a receptor (Homo sapiens, UniProt P37288).
T2 construct: expressed in transfected cells; host or cells: CHO K1 (ATCC), also stably transfected with a modified aequorin
As to the kind of experiment: Cellular in vitro assay for determining vasopressin receptor activity, V1a receptor cell line (CHO, aequorin luminescence). The format is cell-based. The settings on record: for pIC50: CHO cell line transfected with human V1a receptor, [Arg]-vasopressin at EC50 concentration, read-out: IC50 hV1a; for ratio IC50 hV2/hV1a: selectivity ratio IC50 hV2 / IC50 hV1a. The procedure:
as §1, §2
Vasopressin V1a Receptor Cell Lines:
On the day before the assay, the cells are plated out in culture medium (DMEM/F12, 2% FCS, 2 mM glutamine, 10 mM HEPES, 5 μg/ml coelenterazine) in 384-well microtiter plates and kept in a cell incubator (96% humidity, 5% v/v CO2, 37° C.). On the day of the assay, test compounds in various concentrations are placed for 10 minutes in the wells of the microtiter plate before the agonist [Arg]-vasopressin at EC50 concentration is added. The resulting light signal is measured immediately in a luminometer.
as §3

T1 sequence (P30518 whole entry): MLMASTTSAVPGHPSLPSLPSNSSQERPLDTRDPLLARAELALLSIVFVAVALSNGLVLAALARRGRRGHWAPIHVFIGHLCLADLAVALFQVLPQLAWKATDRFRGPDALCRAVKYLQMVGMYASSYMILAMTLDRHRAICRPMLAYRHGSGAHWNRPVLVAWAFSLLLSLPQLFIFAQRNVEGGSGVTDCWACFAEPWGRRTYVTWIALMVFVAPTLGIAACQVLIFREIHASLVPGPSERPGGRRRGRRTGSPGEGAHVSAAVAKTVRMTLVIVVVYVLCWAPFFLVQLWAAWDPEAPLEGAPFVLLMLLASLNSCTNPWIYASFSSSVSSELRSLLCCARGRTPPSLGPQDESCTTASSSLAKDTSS
T2 sequence (P37288 whole entry): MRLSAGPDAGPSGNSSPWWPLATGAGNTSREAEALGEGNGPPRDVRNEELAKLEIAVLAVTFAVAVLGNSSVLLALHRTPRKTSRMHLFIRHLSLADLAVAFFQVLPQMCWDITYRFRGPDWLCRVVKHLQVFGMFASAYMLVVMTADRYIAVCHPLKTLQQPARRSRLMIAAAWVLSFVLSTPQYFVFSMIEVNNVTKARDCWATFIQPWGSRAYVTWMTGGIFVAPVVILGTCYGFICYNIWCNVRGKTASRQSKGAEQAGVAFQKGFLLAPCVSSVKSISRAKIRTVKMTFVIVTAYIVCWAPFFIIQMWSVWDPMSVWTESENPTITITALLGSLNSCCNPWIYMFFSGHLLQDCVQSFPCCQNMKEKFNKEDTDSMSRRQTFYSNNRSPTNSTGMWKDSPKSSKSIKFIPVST

`O=C1CCC(CNc2ccncc2-n2cnc(Cn3nc(-c4ccc(Cl)cc4)n(C[C@H](O)C(F)(F)F)c3=O)n2)N1` (mixture of isomers) [Example 7, 5-(4-Chlorophenyl)-2-({1-[4-({[5-oxopyrrolidin-2-yl]methyl}amino)pyridin-3-yl]-1H-1,2,4-triazol-3-yl}methyl)-4-[(2S)-3,3,3-trifluoro-2-hydroxypropyl]-2,4-dihydro-3H-1,2,4-triazol-3-one]: the pIC50 is 5.41 on human V2 receptor and 5.76 at human V1a receptor. Moreover, on human V1a receptor, the “ratio IC50 hV2/hV1a” value is reported as 2.2.

As to `CC1(O)CCN(c2ccncc2-n2cnc(Cn3nc(-c4ccc(Cl)cc4)n(C[C@H](O)C(F)(F)F)c3=O)n2)C1` (mixture of isomers) [Example 13, 5-(4-Chlorophenyl)-2-[(1-{4-[3-hydroxy-3-methylpyrrolidin-1-yl]pyridin-3-yl}-1H-1,2,4-triazol-3-yl)methyl]-4-[(2S)-3,3,3-trifluoro-2-hydroxypropyl]-2,4-dihydro-3H-1,2,4-triazol-3-one], the pIC50 at human V2 receptor is 7.04. On human V1a receptor, the negative-log IC50 (pIC50) is 6.24 and the “ratio IC50 hV2/hV1a” value was 0.2.

In the case of `O=C(Nc1ccncc1-n1cnc(Cn2nc(-c3ccc(Cl)cc3)n(C[C@H](O)C(F)(F)F)c2=O)n1)C1CC1(F)F` (mixture of isomers) [Example 29, N-{3-[3-({3-(4-Chlorophenyl)-5-oxo-4-[(2S)-3,3,3-trifluoro-2-hydroxypropyl]-4,5-dihydro-1H-1,2,4-triazol-1-yl}methyl)-1H-1,2,4-triazol-1-yl]pyridin-4-yl}-2,2-difluorocyclopropanecarboxamide], the pIC50 on human V2 receptor was 6.44; at human V1a receptor, 7.78. On human V1a receptor, the “ratio IC50 hV2/hV1a” value amounted to 22.1.

For the molecule `O=C(Nc1cccnc1-n1cnc(Cn2nc(-c3ccc(Cl)cc3)n(C[C@H](O)C(F)(F)F)c2=O)n1)C1CC1(F)F` (mixture of isomers) [Example 41, N-{2-[3-({3-(4-Chlorophenyl)-5-oxo-4-[(2S)-3,3,3-trifluoro-2-hydroxypropyl]-4,5-dihydro-1H-1,2,4-triazol-1-yl}methyl)-1H-1,2,4-triazol-1-yl]pyridin-3-yl}-2,2-difluorocyclopropanecarboxamide], the negative logarithm of the IC50 (pIC50) on human V2 receptor is 6.65; at human V1a receptor it was 8.46. Also, on human V1a receptor, the “ratio IC50 hV2/hV1a” value was found to be 64.4.

Turning to `O=C(Nc1cccnc1-n1cnc(Cn2nc(-c3ccc(Cl)cc3)n(C[C@H](O)C(F)(F)F)c2=O)n1)C1CCS(=O)(=O)C1` (mixture of isomers) [Example 50, N-{2-[3-({3-(4-Chlorophenyl)-5-oxo-4-[(2S)-3,3,3-trifluoro-2-hydroxypropyl]-4,5-dihydro-1H-1,2,4-triazol-1-yl}methyl)-1H-1,2,4-triazol-1-yl]pyridin-3-yl}tetrahydrothiophene-3-carboxamide 1,1-dioxide], the negative-log IC50 (pIC50) at human V2 receptor is 5.36. Further, on human V1a receptor, the pIC50 was 7.69 and the “ratio IC50 hV2/hV1a” value is 213.0.

Regarding `O=C(Nc1cccnc1-n1cnc(Cn2nc(-c3ccc(Cl)cc3)n(CC(O)C(F)(F)F)c2=O)n1)C1CC1F` (mixture of isomers) [Example 59, N-{2-[3-({3-(4-Chlorophenyl)-5-oxo-4-[(2S)-3,3,3-trifluoro-2-hydroxypropyl]-4,5-dihydro-1H-1,2,4-triazol-1-yl}methyl)-1H-1,2,4-triazol-1-yl]pyridin-3-yl}-2-fluorocyclopropanecarboxamide], the negative-log IC50 (pIC50) at human V2 receptor was 6.02. At human V1a receptor, the negative-log IC50 (pIC50) is 8.29 and the “ratio IC50 hV2/hV1a” value amounted to 185.4.

As to `O=C(Nc1ncccc1-n1cnc(Cn2nc(-c3ccc(Cl)cc3)n(C[C@H](O)C(F)(F)F)c2=O)n1)C1CC1(F)F` (mixture of isomers) [Example 75, N-{3-[3-({3-(4-Chlorophenyl)-5-oxo-4-[(2S)-3,3,3-trifluoro-2-hydroxypropyl]-4,5-dihydro-1H-1,2,4-triazol-1-yl}methyl)-1H-1,2,4-triazol-1-yl]pyridin-2-yl}-2,2-difluorocyclopropanecarboxamide], the negative-log IC50 (pIC50) was 5.89 on human V2 receptor and 8.18 at human V1a receptor. Further, the “ratio IC50 hV2/hV1a” value at human V1a receptor came out at 197.0.

`O=C(Nc1ncccc1-n1cnc(Cn2nc(-c3ccc(Cl)cc3)n(C[C@H](O)C(F)(F)F)c2=O)n1)C1CCS(=O)(=O)C1` (mixture of isomers) [Example 82, N-{3-[3-({3-(4-Chlorophenyl)-5-oxo-4-[(2S)-3,3,3-trifluoro-2-hydroxypropyl]-4,5-dihydro-1H-1,2,4-triazol-1-yl}methyl)-1H-1,2,4-triazol-1-yl]pyridin-2-yl}tetrahydrothiophene-3-carboxamide 1,1-dioxide]: the pIC50 on human V2 receptor was 6.47. Also, at human V1a receptor, the negative-log IC50 (pIC50) was 7.48 and the “ratio IC50 hV2/hV1a” value stood at 10.2.

As to `CC1(O)CCN(C(=O)c2ccccc2-n2cnc(Cn3nc(-c4ccc(Cl)cc4)n(C[C@H](O)C(F)(F)F)c3=O)n2)C1` (mixture of isomers) [Example 183, 5-(4-Chlorophenyl)-2-{[1-(2-{[3-hydroxy-3-methylpyrrolidin-1-yl]carbonyl}phenyl)-1H-1,2,4-triazol-3-yl]methyl}-4-[(2S)-3,3,3-trifluoro-2-hydroxypropyl]-2,4-dihydro-3H-1,2,4-triazol-3-one], the negative logarithm of the IC50 (pIC50) was 5.46 on human V2 receptor and 7.06 at human V1a receptor. The “ratio IC50 hV2/hV1a” value on human V1a receptor stood at 39.8.

In the case of `O=C1CCC(NC(=O)c2ccccc2-n2cnc(Cn3nc(-c4ccc(Cl)cc4)n(C[C@H](O)C(F)(F)F)c3=O)n2)CN1` (mixture of isomers) [Example 191], on human V2 receptor, the negative logarithm of the IC50 (pIC50) was 5.43. In addition, at human V1a receptor, the negative-log IC50 (pIC50) is 7.71 and the “ratio IC50 hV2/hV1a” value is on record as 192.3.

As for `NC(CNC(=O)c1ccccc1-n1cnc(Cn2nc(-c3ccc(Cl)cc3)n(C[C@H](O)C(F)(F)F)c2=O)n1)C(F)(F)C(F)F` (mixture of isomers) [Example 196, N-[2-Amino-3,3,4,4-tetrafluorobutyl]-2-[3-({3-(4-chlorophenyl)-5-oxo-4-[(2S)-3,3,3-trifluoro-2-hydroxypropyl]-4,5-dihydro-1H-1,2,4-triazol-1-yl}methyl)-1H-1,2,4-triazol-1-yl]benzamide], the pIC50 on human V2 receptor is 6.07. On human V1a receptor, the pIC50 is 7.66 and the “ratio IC50 hV2/hV1a” value is listed as 38.9.

Take `O=C(c1ncccc1-n1cnc(Cn2nc(-c3ccc(Cl)cc3)n(C[C@@H](O)C(F)(F)F)c2=O)n1)N1CCNC(C(F)(F)F)C1` (mixture of isomers) [Example 476, 5-(4-Chlorophenyl)-4-[(2R)-3,3,3-trifluoro-2-hydroxypropyl]-2-{[1-(2-{[3-(trifluoromethyl)piperazin-1-yl]carbonyl}pyridin-3-yl)-1H-1,2,4-triazol-3-yl]methyl}-2,4-dihydro-3H-1,2,4-triazol-3-one]: on human V1a receptor, the negative logarithm of the IC50 (pIC50) was 6.12 and the “ratio IC50 hV2/hV1a” value is recorded as 133.3.

With `O=C(N[C@H]1C[C@@H]1F)c1ncccc1-n1nc(Cn2nc(-c3ccc(Cl)cc3)n(C[C@@H](O)C(F)(F)F)c2=O)nc1N1CCS(=O)(=O)CC1` (racemic) [Example 487, 3-[3-({3-(4-Chlorophenyl)-5-oxo-4-[(2R)-3,3,3-trifluoro-2-hydroxypropyl]-4,5-dihydro-1H-1,2,4-triazol-1-yl}methyl)-5-(1,1-dioxidothiomorpholin-4-yl)-1H-1,2,4-triazol-1-yl]-N-[2-fluorocyclopropyl]pyridine-2-carboxamide], on human V1a receptor, the pIC50 is 5.28 and the “ratio IC50 hV2/hV1a” value worked out at 18.9.

Take `O=C1CN(C(=O)c2ncccc2-n2cnc(Cn3nc(-c4ccc(Cl)cc4)n(C[C@@H](O)C(F)(F)F)c3=O)n2)CCN1` [Example 469, 4-({3-[3-({3-(4-Chlorophenyl)-5-oxo-4-[(2R)-3,3,3-trifluoro-2-hydroxypropyl]-4,5-dihydro-1H-1,2,4-triazol-1-yl}methyl)-1H-1,2,4-triazol-1-yl]pyridin-2-yl}carbonyl)piperazin-2-one]: at human V1a receptor, the negative logarithm of the IC50 (pIC50) was 6.25 and the “ratio IC50 hV2/hV1a” value came to 178.6.
